In ChEMBL document CHEMBL1201862, “PubChem BioAssay data set” (2004):
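Assay format: 96-well plates, 48-hour exposure. GI50 marks 50% less growth.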 Calls of active or inactive are those of the source. No stated cut-off is given here; in the data, active = GI50 up to about 1.1 µM and inactive = higher.

Key:
Experiment in all cases: growth of human tumour cells (NCI), 48 h
ACHN = test system: ACHN
BT-549 = test system: BT-549
HT-29 = test system: HT-29
KM12 = test system: KM12
MDA-MB-231 = test system: MDA-MB-231
MDA-N = test system: MDA-N
NCI-H23 = test system: NCI-H23
NCI-H522 = test system: NCI-H522
OVCAR-3 = test system: OVCAR-3
OVCAR-5 = test system: OVCAR-5
OVCAR-8 = test system: OVCAR-8
RXF 393 = test system: RXF 393
SK-MEL-28 = test system: SK-MEL-28
SK-OV-3 = test system: SK-OV-3
SN12C = test system: SN12C
U-251 = test system: U-251
UACC-62 = test system: UACC-62
SF-295 = test system: SF-295
SF-539 = test system: SF-539
T47D = test system: T47D

CCOc1cc2c(cc1O)/C(=N\OC)C[C@@H]1[C@@H]2CC[C@]2(C)[C@@H](O)CC[C@@H]12
GI50 (ACHN): 1.09 µM (active)
GI50 (BT-549): 1.71 µM (inactive)
GI50 (HT-29): 3.81 µM (inactive)
GI50 (KM12): 0.423 µM (active)
GI50 (MDA-MB-231): 0.685 µM (active)
GI50 (MDA-N): < 0.0163 µM (active)
GI50 (NCI-H23): 0.324 µM (active)
GI50 (NCI-H522): 0.0288 µM (active)
GI50 (OVCAR-3): < 0.0205 µM (active)
GI50 (OVCAR-5): 21.6 µM (inactive)
GI50 (OVCAR-8): 0.217 µM (active)
GI50 (RXF 393): < 0.01 µM (active)
GI50 (SK-MEL-28): 1.61 µM (inactive)
GI50 (SK-OV-3): 0.243 µM (active)
GI50 (SN12C): 0.372 µM (active)
GI50 (U-251): 0.135 µM (active)
GI50 (UACC-62): < 0.0306 µM (active)

CN(Cc1cnc2nc(N)nc(N)c2n1)c1ccc(C(=O)NC(CCC(=O)O)C(=O)O)cc1C(F)(F)F (stereo not given)
GI50 (ACHN): < 0.01 µM (active)
GI50 (HT-29): < 0.01 µM (active)
GI50 (KM12): < 0.01 µM (active)
GI50 (MDA-MB-231): > 23.1 µM (inactive)
GI50 (NCI-H23): < 0.01 µM (active)
GI50 (NCI-H522): < 0.01 µM (active)
GI50 (OVCAR-5): < 0.01 µM (active)
GI50 (OVCAR-8): < 0.01 µM (active)
GI50 (RXF 393): > 100 µM (inactive)
GI50 (SF-295): < 0.01 µM (active)
GI50 (SF-539): < 0.01 µM (active)
GI50 (SK-MEL-28): > 100 µM (inactive)
GI50 (SK-OV-3): > 100 µM (inactive)
GI50 (SN12C): < 0.01 µM (active)
GI50 (T47D): > 100 µM (inactive)
GI50 (U-251): < 0.01 µM (active)
GI50 (UACC-62): < 0.01 µM (active)

C/C(=N/NC(N)=S)c1ccc2ccccc2c1
GI50 (ACHN): 55.6 µM (inactive)
GI50 (HT-29): 19.7 µM (inactive)
GI50 (KM12): 9.16 µM (inactive)
GI50 (NCI-H23): 29.7 µM (inactive)
GI50 (NCI-H522): 17.6 µM (inactive)
GI50 (OVCAR-3): 30.4 µM (inactive)
GI50 (OVCAR-5): 24 µM (inactive)
GI50 (OVCAR-8): 32.9 µM (inactive)
GI50 (RXF 393): 35.3 µM (inactive)
GI50 (SF-295): 29.4 µM (inactive)
GI50 (SF-539): 17.1 µM (inactive)
GI50 (SK-MEL-28): 36.1 µM (inactive)
GI50 (SK-OV-3): 21.9 µM (inactive)
GI50 (SN12C): 32.7 µM (inactive)
GI50 (U-251): 24.8 µM (inactive)
GI50 (UACC-62): 9.42 µM (inactive)

CN(C(=O)C1(C(=O)C=[N+]=[N-])CC1)c1ccccc1
GI50 (ACHN): > 100 µM (inactive)
GI50 (BT-549): > 100 µM (inactive)
GI50 (HT-29): > 100 µM (inactive)
GI50 (KM12): > 100 µM (inactive)
GI50 (MDA-MB-231): > 100 µM (inactive)
GI50 (MDA-N): > 100 µM (inactive)
GI50 (NCI-H23): > 100 µM (inactive)
GI50 (NCI-H522): 83.6 µM (inactive)
GI50 (OVCAR-3): > 100 µM (inactive)
GI50 (OVCAR-5): > 100 µM (inactive)
GI50 (OVCAR-8): > 100 µM (inactive)
GI50 (RXF 393): > 100 µM (inactive)
GI50 (SF-295): > 100 µM (inactive)
GI50 (SF-539): > 100 µM (inactive)
GI50 (SK-MEL-28): > 100 µM (inactive)
GI50 (SN12C): > 100 µM (inactive)
GI50 (U-251): > 100 µM (inactive)
GI50 (UACC-62): > 100 µM (inactive)

CCOC(=O)c1csc(NC(=O)CCN2CCCC2)n1
GI50 (ACHN): > 100 µM (inactive)
GI50 (HT-29): > 100 µM (inactive)
GI50 (KM12): > 100 µM (inactive)
GI50 (MDA-MB-231): > 100 µM (inactive)
GI50 (MDA-N): > 100 µM (inactive)
GI50 (NCI-H23): > 100 µM (inactive)
GI50 (OVCAR-3): > 100 µM (inactive)
GI50 (OVCAR-5): > 100 µM (inactive)
GI50 (OVCAR-8): > 100 µM (inactive)
GI50 (RXF 393): > 100 µM (inactive)
GI50 (SF-295): > 100 µM (inactive)
GI50 (SF-539): > 100 µM (inactive)
GI50 (SK-MEL-28): > 100 µM (inactive)
GI50 (SK-OV-3): > 100 µM (inactive)
GI50 (T47D): > 100 µM (inactive)
GI50 (U-251): > 100 µM (inactive)
GI50 (UACC-62): > 100 µM (inactive)

CC(=O)c1ccc(NCc2cc(O)ccc2O)cc1
GI50 (ACHN): 18.5 µM (inactive)
GI50 (HT-29): 32.1 µM (inactive)
GI50 (KM12): 14.2 µM (inactive)
GI50 (MDA-MB-231): 21.8 µM (inactive)
GI50 (MDA-N): 20.4 µM (inactive)
GI50 (NCI-H23): 22.5 µM (inactive)
GI50 (NCI-H522): 31.3 µM (inactive)
GI50 (OVCAR-3): 7.06 µM (inactive)
GI50 (OVCAR-5): 21.3 µM (inactive)
GI50 (OVCAR-8): 23.8 µM (inactive)
GI50 (RXF 393): 14 µM (inactive)
GI50 (SF-295): 17.8 µM (inactive)
GI50 (SF-539): 14.5 µM (inactive)
GI50 (SK-MEL-28): 40.3 µM (inactive)
GI50 (SK-OV-3): 23 µM (inactive)
GI50 (SN12C): 25.5 µM (inactive)
GI50 (T47D): 14.3 µM (inactive)
GI50 (U-251): 21.8 µM (inactive)
GI50 (UACC-62): 15.3 µM (inactive)

COc1cc([C@@H]2c3cc(O)c(OC)cc3C=C(C(N)=O)[C@H]2C(N)=O)ccc1O
GI50 (ACHN): > 100 µM (inactive)
GI50 (HT-29): > 100 µM (inactive)
GI50 (KM12): > 100 µM (inactive)
GI50 (MDA-MB-231): > 100 µM (inactive)
GI50 (MDA-N): > 100 µM (inactive)
GI50 (NCI-H23): > 100 µM (inactive)
GI50 (NCI-H522): > 100 µM (inactive)
GI50 (OVCAR-3): > 100 µM (inactive)
GI50 (OVCAR-5): > 100 µM (inactive)
GI50 (OVCAR-8): > 100 µM (inactive)
GI50 (RXF 393): > 100 µM (inactive)
GI50 (SF-295): > 100 µM (inactive)
GI50 (SF-539): > 100 µM (inactive)
GI50 (SK-MEL-28): > 100 µM (inactive)
GI50 (SN12C): > 100 µM (inactive)
GI50 (T47D): > 100 µM (inactive)
GI50 (U-251): > 100 µM (inactive)

c1cnc2c(c1)Nc1cnncc1S2
GI50 (ACHN): > 100 µM (inactive)
GI50 (HT-29): > 100 µM (inactive)
GI50 (KM12): > 100 µM (inactive)
GI50 (MDA-MB-231): > 100 µM (inactive)
GI50 (MDA-N): > 100 µM (inactive)
GI50 (NCI-H23): > 100 µM (inactive)
GI50 (NCI-H522): > 100 µM (inactive)
GI50 (OVCAR-3): > 100 µM (inactive)
GI50 (OVCAR-5): > 100 µM (inactive)
GI50 (OVCAR-8): > 100 µM (inactive)
GI50 (RXF 393): > 100 µM (inactive)
GI50 (SF-295): > 100 µM (inactive)
GI50 (SF-539): > 100 µM (inactive)
GI50 (SK-MEL-28): > 100 µM (inactive)
GI50 (SK-OV-3): > 100 µM (inactive)
GI50 (SN12C): > 100 µM (inactive)
GI50 (T47D): > 100 µM (inactive)
GI50 (U-251): > 100 µM (inactive)
GI50 (UACC-62): 77.6 µM (inactive)
